Two compounds from patent US20250368678A1, “19-NOR-C3,3-DISUBSTITUTED C21-AZACYCLO-S[…] AND METHOD FOR USING SAME” (SHANDONG LUYE PHARMACEUTICAL CO., LTD., priority 2022, published 2025) can be followed below.

In series [1] the target is T1, α1β2γ2 GABA receptors (α1β2γ2-CHO-TRex stable cell strain) (Homo sapiens, UniProt P14867+P47870).
T1 construct: expressed in transfected cells
Nature of the series: Whole-cell patch clamp, intrasynaptic functional activity (positive allosteric regulation of GABA-induced current). Particulars: patch clamp -60 mV, GABA at EC10-20, α1β2γ2-CHO-TRex cells. Format: cell-based. The method in brief:
(§1)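 Tetracycline-induced stable lines were used: α4β3δ in HEK-FlpIn-TRex and α1β2γ2 in CHO-TRex. Whole-cell patch clamp was run at −60 mV with GABA at EC10-20 ([…]) and compound perfused for 30 s before GABA, with extracellular pH 7.4. Fold increase in GABA current over ≥5 concentrations on ≥3 cells gave EC50 and Emax by Hill fit.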

The target of series [2] is T2, α4β3δ GABA receptors (α4β3δ-HEK-FlpIn-TRex stable cell strain) (Homo sapiens, UniProt P28472+P48169).
T2 construct: expressed in transfected cells
T2 sequence (P48169 36-554): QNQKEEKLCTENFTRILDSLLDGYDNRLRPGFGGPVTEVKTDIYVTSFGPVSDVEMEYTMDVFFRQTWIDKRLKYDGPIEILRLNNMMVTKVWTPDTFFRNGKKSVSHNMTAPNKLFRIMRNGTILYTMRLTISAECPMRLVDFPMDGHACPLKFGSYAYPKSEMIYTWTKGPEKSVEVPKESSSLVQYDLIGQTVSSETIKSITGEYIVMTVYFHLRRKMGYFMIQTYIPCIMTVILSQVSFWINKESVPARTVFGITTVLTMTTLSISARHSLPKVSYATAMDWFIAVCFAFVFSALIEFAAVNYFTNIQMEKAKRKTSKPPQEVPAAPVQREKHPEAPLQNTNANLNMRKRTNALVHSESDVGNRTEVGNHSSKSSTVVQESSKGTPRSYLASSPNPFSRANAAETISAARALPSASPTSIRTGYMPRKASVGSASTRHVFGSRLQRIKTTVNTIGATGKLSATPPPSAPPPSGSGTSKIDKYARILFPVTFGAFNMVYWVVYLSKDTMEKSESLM
T2 sequence (P28472 26-473): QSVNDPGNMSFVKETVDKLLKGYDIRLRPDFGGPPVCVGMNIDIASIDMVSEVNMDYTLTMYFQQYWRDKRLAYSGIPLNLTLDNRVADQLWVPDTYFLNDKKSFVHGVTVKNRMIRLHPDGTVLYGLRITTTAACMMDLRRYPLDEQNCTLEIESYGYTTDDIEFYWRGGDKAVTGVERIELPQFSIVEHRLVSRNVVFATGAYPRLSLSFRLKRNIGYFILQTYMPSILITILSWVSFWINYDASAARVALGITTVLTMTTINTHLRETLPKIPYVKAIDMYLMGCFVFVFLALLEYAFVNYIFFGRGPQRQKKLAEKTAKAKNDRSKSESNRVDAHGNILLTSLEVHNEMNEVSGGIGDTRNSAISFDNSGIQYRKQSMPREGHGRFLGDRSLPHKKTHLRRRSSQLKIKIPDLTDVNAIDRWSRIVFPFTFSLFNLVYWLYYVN
T2 sequence (O14764 25-452 partner): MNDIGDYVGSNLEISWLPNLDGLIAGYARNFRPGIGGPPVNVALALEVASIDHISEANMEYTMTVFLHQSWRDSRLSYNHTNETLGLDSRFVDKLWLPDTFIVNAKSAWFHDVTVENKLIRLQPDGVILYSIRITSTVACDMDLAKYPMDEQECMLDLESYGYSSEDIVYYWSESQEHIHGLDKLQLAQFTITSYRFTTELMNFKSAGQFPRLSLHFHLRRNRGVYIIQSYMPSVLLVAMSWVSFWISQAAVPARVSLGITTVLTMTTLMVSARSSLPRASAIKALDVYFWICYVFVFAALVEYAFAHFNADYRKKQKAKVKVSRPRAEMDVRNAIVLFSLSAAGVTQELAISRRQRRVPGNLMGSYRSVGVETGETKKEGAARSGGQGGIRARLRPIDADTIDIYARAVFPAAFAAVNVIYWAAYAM
Nature of the series: Whole-cell patch clamp, extrasynaptic functional activity (positive allosteric regulation of GABA-induced current). Format: cell-based. The following applies: patch clamp -60 mV, GABA at EC10-20, α4β3δ-HEK-FlpIn-TRex cells. The method in brief: as §1
In general terms: In patch-clamp work, channel activity is measured electrically.

A short description of series [3]: In vitro liver microsomal stability assay, human. Format: in vitro ADME. The following applies: for Remaining amount % at 60 min: Human liver microsomes 0.5 mg/mL, NADPH; for microsomal CLint at 1 µM: read-out: CLint(mic). The gist of the method:
(§2)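 Test compound at […] was incubated at 37° C with 0.5 mg/mL rat or human liver microsomes, 1 mM NADPH and 3 mM MgCl2, in triplicate, sampled 0–60 min. Remaining parent was quantified by LC-MS/MS, giving half-life and microsomal and hepatic intrinsic clearance.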

Series [4] is described as follows: In vitro liver microsomal stability assay, rat. The following applies: for Remaining amount % at 60 min: Rat liver microsomes 0.5 mg/mL, NADPH; for microsomal CLint at 1 µM: read-out: CLint(mic). In kind it is in vitro ADME. The method in brief:
as §2
(In general: Liver microsomes are vesicles of endoplasmic reticulum, rich in cytochrome P450 enzymes.)

Each structure is given as a SMILES string.

T1 sequence (P14867 28-456): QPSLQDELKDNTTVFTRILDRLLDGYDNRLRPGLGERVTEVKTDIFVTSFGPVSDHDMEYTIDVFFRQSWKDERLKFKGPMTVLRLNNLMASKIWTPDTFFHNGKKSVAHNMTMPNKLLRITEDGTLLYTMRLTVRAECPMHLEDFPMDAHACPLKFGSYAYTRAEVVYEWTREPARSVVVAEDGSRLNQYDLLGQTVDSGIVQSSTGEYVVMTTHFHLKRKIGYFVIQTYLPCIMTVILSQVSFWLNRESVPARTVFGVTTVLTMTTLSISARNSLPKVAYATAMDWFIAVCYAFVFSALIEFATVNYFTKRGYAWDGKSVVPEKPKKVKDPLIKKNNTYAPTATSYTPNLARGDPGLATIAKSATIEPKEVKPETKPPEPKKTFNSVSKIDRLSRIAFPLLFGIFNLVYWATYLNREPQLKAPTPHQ
T1 sequence (P47870 25-512 limits assumed): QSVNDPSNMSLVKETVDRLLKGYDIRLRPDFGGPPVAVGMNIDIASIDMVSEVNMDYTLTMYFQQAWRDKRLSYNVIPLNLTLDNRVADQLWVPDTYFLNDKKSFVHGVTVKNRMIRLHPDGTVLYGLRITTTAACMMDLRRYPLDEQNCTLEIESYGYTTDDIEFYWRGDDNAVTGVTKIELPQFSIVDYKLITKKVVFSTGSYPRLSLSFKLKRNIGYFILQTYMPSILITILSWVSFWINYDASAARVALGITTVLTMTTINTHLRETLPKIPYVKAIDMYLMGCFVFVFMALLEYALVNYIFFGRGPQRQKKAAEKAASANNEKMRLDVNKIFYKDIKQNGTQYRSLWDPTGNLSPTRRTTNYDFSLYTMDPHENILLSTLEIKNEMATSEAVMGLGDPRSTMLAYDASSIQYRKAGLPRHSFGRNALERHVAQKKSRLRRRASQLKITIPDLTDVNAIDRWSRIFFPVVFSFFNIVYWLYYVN
T1 sequence (P18507 40-475 partner): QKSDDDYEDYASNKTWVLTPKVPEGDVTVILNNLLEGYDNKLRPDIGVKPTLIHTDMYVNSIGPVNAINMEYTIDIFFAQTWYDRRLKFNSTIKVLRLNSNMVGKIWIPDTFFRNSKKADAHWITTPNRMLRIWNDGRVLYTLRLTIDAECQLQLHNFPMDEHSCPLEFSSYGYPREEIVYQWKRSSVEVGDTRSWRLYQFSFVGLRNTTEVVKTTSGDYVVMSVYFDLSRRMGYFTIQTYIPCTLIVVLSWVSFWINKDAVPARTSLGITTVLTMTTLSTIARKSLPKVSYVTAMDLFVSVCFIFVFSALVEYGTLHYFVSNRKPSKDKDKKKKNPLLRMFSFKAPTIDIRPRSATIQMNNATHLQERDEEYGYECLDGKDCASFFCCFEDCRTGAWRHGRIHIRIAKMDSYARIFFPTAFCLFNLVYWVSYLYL

For the compound `C[C@@]1(O)CC[C@H]2[C@H](CC[C@@H]3[C@@H]2CC[C@]2(C)[C@@H](C(=O)Cn4cnn(C5CCCC5)c4=O)CC[C@@H]32)C1` [Compound 29], in series [1], the EC50 was found to be 0.192 µM and the Emax stood at 691%. In series [2], the response was half-maximal at 0.203 µM (EC50) and the Emax stood at 830%. Moreover, in series [3] (Human liver microsomes), the CLint scaled at 1 µM was 3.6 L/h/kg, the half-life at 1 µM is 20.7 min and the microsomal CLint at 1 µM was 67 µL/min/mg. Also, the “Remaining amount % at 60 min” value in series [3] was determined as 45.8%. In addition, in series [4] (Rat liver microsomes), the intrinsic clearance (CLint scaled) at 1 µM stood at 3.84 L/h/kg, the half-life at 1 µM is 38.7 min and the microsomal CLint at 1 µM is 36 µL/min/mg. Besides, the “Remaining amount % at 60 min” value in series [4] came to 36.8%.

Regarding `C[C@@]1(O)CC[C@H]2[C@H](CC[C@@H]3[C@@H]2CC[C@]2(C)[C@@H](C(=O)Cn4cnn(-c5cccnc5)c4=O)CC[C@@H]32)C1` [Compound 2], the results for the Emax in series [1] and in series [2] were 773% and 391%, respectively. In addition, the intrinsic clearance (CLint scaled) at 1 µM in series [3] (Human liver microsomes) came to 3.12 L/h/kg; in series [4] (Rat liver microsomes) it was 11.2 L/h/kg. Also, the T1/2 in series [3] (Human liver microsomes) was determined as 24.1 min; in series [4] (Rat liver microsomes), 11.3 min. For the same compound, the “Remaining amount % at 60 min” value was found to be 18.57% in series [3] and 11.25% in series [4]. The microsomal CLint at 1 µM in series [3] (Human liver microsomes) was determined as 57 µL/min/mg; in series [4] (Rat liver microsomes) it was 104 µL/min/mg.

The EC50 is the midpoint of the concentration-response curve. In general, Emax refers to the maximal effect, on the per cent scale that the assay sets. What is called CLint scaled is the capacity of the preparation to metabolise the compound, expressed as a volume cleared per time. A higher CLint scaled goes with faster metabolism. For orientation: half-life means the time needed for the level to fall by half in the phase considered.
